{"source": "patent US20200181212A1", "about": "(priority 2014, published 2020)", "test": "physchem", "conditions": "cells or culture medium"}
{"smiles": "CC(C)C[C@@H]1NC(=O)[C@H](CO)NC(=O)[C@@H]2CSSC[C@@H]3NC(=O)[C@H]([C@@H](C)O)NC(=O)[C@H](C)NC(=O)[C@H](CC(=O)O)NC(=O)[C@H](CC(=O)O)NC(=O)[C@H](CSSC[C@H](NC(=O)[C@H](Cc4ccc(O)cc4)NC(=O)[C@@H](N)CCC(N)=O)C(=O)N[C@@H](C(C)C)C(=O)N4CCC[C@H]4C(=O)N[C@@H](C(C)C)C(=O)N[C@@H](CC(=O)O)C(=O)N[C@@H](CCC(N)=O)C(=O)N4CCC[C@H]4C(=O)N2)NC(=O)[C@H](CSSC[C@@H](C(=O)N[C@@H](CCCNC(=N)N)C(=O)N[C@@H](C)C(=O)O)NC(=O)[C@H](Cc2ccc(O)cc2)NC(=O)[C@H](Cc2ccc(O)cc2)NC(=O)[C@H](C(C)C)NC(=O)[C@H]([C@@H](C)O)NC(=O)[C@H](Cc2c[nH]cn2)NC(=O)CNC(=O)[C@H](CC(N)=O)NC(=O)[C@H](CCC(=O)O)NC(=O)[C@H](CC(N)=O)NC(=O)[C@H](CCCNC(=N)N)NC(=O)[C@H](CCC(=O)O)NC(=O)[C@H](CCC(N)=O)NC(=O)[C@H]([C@@H](C)O)NC3=O)NC(=O)[C@@H]2CCCN2C(=O)[C@H](CCC(N)=O)NC(=O)[C@H]([C@@H](C)O)NC(=O)[C@H](CC(N)=O)NC1=O", "note": "(single isomer, unassigned) [Peak 1]", "values": [{"measurement": "remaining at 24 h", "result": 5.6, "unit": "%"}]}
